# Oligonucleotides are written 5' to 3', each unit as a sugar letter and its base; * is a phosphorothioate linkage, no mark a phosphodiester; rarer units and linkages stand in square brackets, end groups in braces. Plain capitals give the bases only. e = 2'-O-(2-methoxyethyl) (MOE); k = constrained ethyl (cEt); [5mC] = 5-methylcytosine; d = 2'-deoxy (DNA)
# Tests used:
# AR mRNA [1] = assay: Antisense inhibition of human AR in HuVEC cells, single concentration (electroporation, qRT-PCR RTS3559); format: cell-based; conditions: 1,000 nM ASO, ~24 h, Table 13
# Procedure: Antisense oligonucleotides were designed targeting an AR nucleic acid and were tested for their effects on AR mRNA in vitro. The antisense oligonucleotides were tested in a series of experiments that had similar culture conditions. […] Human primer probe set RTS3559 (forward sequence [NT], designated herein as SEQ ID NO: 9; reverse sequence [NT], designated herein as SEQ ID NO: 10; probe sequence [NT], designated herein as SEQ ID NO: 11) was used to measure mRNA levels. AR mRNA levels were adjusted according to total RNA content, as measured by RIBOGREEN®. […] A total of 155 oligonucleotides were tested. Additional antisense oligonucleotides were designed targeting an AR nucleic acid and were tested for their effects on AR mRNA in vitro. […] Human primer probe set RTS3559 was used to measure mRNA levels. AR mRNA levels were adjusted according to total RNA content, as measured by RIBOGREEN®. […] A total of 82 oligonucleotides were tested. Additional antisense oligonucleotides were designed targeting an AR nucleic acid and were tested for their effects on AR mRNA in vitro. […] Human primer probe set RTS3559 was used to measure mRNA levels. AR mRNA levels were adjusted according to total RNA content, as measured by RIBOGREEN®. […] A total of 40 oligonucleotides were tested. Additional antisense oligonucleotides were designed targeting an AR nucleic acid and were tested for their effects on AR mRNA in vitro. […] Human primer probe set RTS3559 was used to measure mRNA levels. AR mRNA levels were adjusted according to total RNA content, as measured by RIBOGREEN®. […] A total of 75 oligonucleotides were tested. Additional antisense oligonucleotides were designed targeting an AR nucleic acid and were tested for their effects on AR mRNA in vitro. […] Human primer probe set RTS3559 was used to measure mRNA levels. AR mRNA levels were adjusted according to total RNA content, as measured by RIBOGREEN®. […] A total of 616 oligonucleotides were tested. Additional antisense oligonucleotides were designed targeting an AR nucleic acid and were tested for their effects on AR mRNA in vitro. […] Human primer probe set RTS3559 was used to measure mRNA levels. AR mRNA levels were adjusted according to total RNA content, as measured by RIBOGREEN®. […] A total of 385 oligonucleotides were tested.
# AR mRNA [2] = assay: Dose-dependent antisense inhibition of human AR in HuVEC cells (electroporation, qRT-PCR RTS3559, IC50); format: cell-based; conditions: HuVEC, ~16 h
# Procedure: (§1) After a treatment period of approximately 16 hours, RNA was isolated from the cells and AR mRNA levels were measured by quantitative real-time PCR. Human AR primer probe set RTS3559 was used to measure mRNA levels. AR mRNA levels were adjusted according to total RNA content, as measured by RIBOGREEN®. […] The antisense oligonucleotides were tested in a series of experiments that had similar culture conditions.
# as §1, §1, §1, §1
# (§2) After a treatment period of approximately 16 hours, RNA was isolated from the cells and AR mRNA levels were measured by quantitative real-time PCR. Human AR primer probe set RTS3559 was used to measure mRNA levels. AR mRNA levels were adjusted according to total RNA content, as measured by RIBOGREEN®.
# as §2
substance,measurement,setting,value
585269 (eA*kA*eG*kT*dT*dG*dT*dA*dG*dT*dA*dG*eT*k[5mC]*eG*k[5mC]) [compound 585269],% inhibition,AR mRNA [1],73%
585263 (kA*kA*kG*dT*dT*dG*dT*dA*dG*dT*dA*kG*kT*k[5mC]*eG*e[5mC]) [compound 585263],% inhibition,AR mRNA [1],69%
585274 (kA*kA*kG*dT*dT*dG*dT*dA*dG*dT*dA*dG*dT*k[5mC]*kG*e[5mC]) [compound 585274],% inhibition,AR mRNA [1],65%
579669 (antisense eG*kG*kT*eT*eG*kA*kT*dT*dT*dA*dA*dT*dG*dG*kT*kT) [compound 579669],percent inhibition of AR,"AR mRNA [2]; 62.5 nM, Table 11",24%
same,percent inhibition of AR,"AR mRNA [2]; 125.0 nM, Table 11",39%
same,percent inhibition of AR,"AR mRNA [2]; 500.0 nM, Table 11",74%
same,percent inhibition of AR,"AR mRNA [2]; 1000.0 nM, Table 11",91%
same,IC50,AR mRNA [2]; Table 11,207 nM
585268 (kA*eA*kG*eT*dT*dG*dT*dA*dG*dT*dA*dG*eT*k[5mC]*eG*k[5mC]) [compound 585268],% inhibition,AR mRNA [1],72%
569217 (antisense eG*kT*kT*kG*dA*dT*dT*dT*dA*dA*dT*dG*kG*kT*kT*eG) [compound 569217],percent inhibition of AR,"AR mRNA [2]; 62.5 nM, Table 12",34%
same,percent inhibition of AR,"AR mRNA [2]; 125.0 nM, Table 12",39%
same,percent inhibition of AR,"AR mRNA [2]; 500.0 nM, Table 12",64%
same,percent inhibition of AR,"AR mRNA [2]; 1000.0 nM, Table 12",64%
same,IC50,AR mRNA [2]; Table 12,247 nM
585233 (kA*kG*kT*dT*dG*dT*dA*dG*dT*dA*dG*kT*e[5mC]*eG*e[5mC]*eG) [compound 585233],% inhibition,AR mRNA [1],69%
569214 (antisense kG*kG*kT*dT*dG*dA*dT*dT*dT*dA*dA*dT*kG*kG*kT*eT) [compound 569214],percent inhibition of AR,"AR mRNA [2]; 62.5 nM, Table 12",20%
same,percent inhibition of AR,"AR mRNA [2]; 125.0 nM, Table 12",26%
same,percent inhibition of AR,"AR mRNA [2]; 500.0 nM, Table 12",62%
same,percent inhibition of AR,"AR mRNA [2]; 1000.0 nM, Table 12",76%
same,IC50,AR mRNA [2]; Table 12,265 nM
585264 (kA*kA*kG*dT*dT*dG*dT*dA*dG*dT*kA*kG*kT*e[5mC]*eG*e[5mC]) [compound 585264],% inhibition,AR mRNA [1],62%
585262 (kA*kA*kG*dT*dT*dG*dT*dA*dG*dT*dA*dG*kT*k[5mC]*kG*e[5mC]) [compound 585262],% inhibition,AR mRNA [1],77%
579672 (antisense eG*kT*kT*eG*kA*kT*dT*dT*dA*dA*dT*dG*dG*kT*kT*kG) [compound 579672],percent inhibition of AR,"AR mRNA [2]; 62.5 nM, Table 11",9%
same,percent inhibition of AR,"AR mRNA [2]; 125.0 nM, Table 11",30%
same,percent inhibition of AR,"AR mRNA [2]; 500.0 nM, Table 11",72%
same,percent inhibition of AR,"AR mRNA [2]; 1000.0 nM, Table 11",86%
same,IC50,AR mRNA [2]; Table 11,258 nM
585271 (eA*kA*kG*dT*dT*dG*dT*dA*dG*dT*dA*dG*dT*k[5mC]*kG*e[5mC]) [compound 585271],% inhibition,AR mRNA [1],57%

# From patent USRE48461E1, “Modulation of androgen receptor expression” (Ionis Pharmaceuticals, Inc., priority 2012, dated 2021)
